One assay concerns SK-Hep1 cells. The assay is described as follows: Growth of SK-Hep1 cells in media supplemented or not with sodium selenite. Format: cell-based, human. As to conditions: 100 nM; FBS-supplemented and insulin/transferrin media. As to the method:
Growth of SK-Hep1 cells was analyzed in modified DMEM media containing Met, Met-SO, Met-RO, or Met-RSO (0.1 mM of each amino acid) or with no addition of these compounds. In addition, media were supplemented or not with 100 nM sodium selenite. Cells were analyzed at 0, 24, 48, and 72 hours. Another experiment involving SK-Hep1 cells was performed with cells grown in serum-free modified DMEM medium, containing insulin (5 μg/mL) and transferrin (10 μg/mL), Met or Met-RSO (0.1 mM of each amino acid) and 100 nM sodium selenite (or with no addition of this compound), and separately in 10% dialyzed FBS-containing DMEM medium containing 0.1 mM Met with 100 nM sodium selenite (or not). Cells were analyzed at 0, 24, 48, and 72 hours. Cell growth assays were carried out as described below.
Proliferation Assay—Cell growth was quantified using colorimetric MTS assay (Promega). Cells in regular DMEM medium were plated in 96-well plates at 5×10^3 cells/well, washed with PBS, and specialized DMEM media were added that contained Met, Met-SO, Met-RO, or Met-RSO 24 hours after plating. […] After 90 minutes of incubation at 37° C. in the atmosphere of 5% CO2, cell proliferation was measured at indicated time periods from 0 to 96 hours at 450 nm in a plate reader. […]

For the next assay, the target named is T1, mouse MsrB1-Cys (Mus musculus, UniProt Q9JLC3, U95C).
T1 sequence (Q9JLC3 1-116 U95C): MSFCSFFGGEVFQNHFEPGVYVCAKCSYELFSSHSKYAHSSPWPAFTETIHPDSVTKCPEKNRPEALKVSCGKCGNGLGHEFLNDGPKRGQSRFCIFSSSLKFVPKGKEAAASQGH
Nature of the assay: Reduction of DMSO by mouse MsrB1-Cys (GC analysis). Type of assay: biochemical. As to conditions: in the presence of DTT; selenocysteine replaced with cysteine. As to the method:
DMSO, which is used as a preservative for stem cells, solvent for drugs, and a drug itself with anti-inflammatory and free radical scavenging properties, was studied for its reduction by Msrs. FIG. 17A details a GC analysis of DMSO incubated with mouse MsrA and DTT. FIG. 17B provides a GC analysis of DMSO incubated with mouse MsrB2 and DTT. FIG. 17C illustrates a GC analysis of DMSO incubated with mouse MsrB1-Cys and DTT. FIG. 17D provides specific activities of various Msrs for the reduction of DMSO (left to right): mouse MsrA in the presence of DTT as a reductant, mouse MsrB2 in the presence of DTT, and mouse MsrB1-Cys in the presence of DTT.

In the next assay the target is mouse MsrB2 (Mus musculus, UniProt Q78J03). The assay is described as follows: Reduction of methylsulfinyl compounds by mouse MsrB2 (HPLC/GC analysis). Format: biochemical. As to conditions: in the presence of DTT. As to the method:
(§1) The isothiocyanate group in R,S-sulforaphane reacts with sulfhydryls to form conjugated compounds. First, the compound was treated with excess DTT (which has two free sulfhydryl groups) to conjugate the isothiocyanate group of R,S-sulforaphane or S-sulforaphane with the sulfhydryl group of DTT and the resulting adducts were then used as substrates for mouse MsrA and mouse MsrB2. The reduction of the DTT-sulforaphane adduct was analyzed using HPLC analysis of the adduct with buffer (as control; FIG. 12A), mouse MsrB2 (FIG. 12B), and mouse MsrA (FIG. 12C). The arrows indicate the migration of the DTT-erucin adduct. […] FIG. 13 illustrates the HPLC analysis of the DTT-R-sulforaphane adduct incubated with buffer (as control) (FIG. 13A), mouse MsrA (FIG. 13B), and mouse MsrB2 (FIG. 13C). Again, the arrows show the migration of the DTT-erucin adduct.
(§2) Mesoridazine, which has a mild effect on treating schizophrenia, was examined to determine its reduction by yeast fRMsr, mouse MsrB2, and mouse MsrA (FIG. 14). The peak of m/z 387.6 corresponds to the molecular weight of mesoridazine and the peak of m/z 371.6 corresponds to the molecular weight of thioridazine. FIG. 14B details the HPLC analysis of mesoridazine incubated with mouse MsrB2 and DTT. FIG. 14C provides the HPLC analysis of mesoridazine incubated with yeast fRMsr and DTT. FIG. 14D illustrates the specific activities of various Msrs for the reduction of mesoridazine (left to right): mouse MsrA in the presence of DTT as a reductant, mouse MsrA in the presence of the thioredoxin reducing system, mouse MsrB2 in the presence of DTT, and yeast fRMsr in the presence of DTT.
(§3) The reduction of triclabendazole sulfoxide was examined. This compound has been used to treat liver fluke, Fasciola hepatica and Fasciola gigantica, in sheep, goat, and cattle as a form of triclabendazole. Triclabendazole can be metabolized to several different forms including triclabendazole sulfoxide, which is an oxidized form of methylsulfide group, in biological systems. FIG. 15A provides an HPLC analysis of triclabendazole sulfoxide incubated with mouse MsrA and DTT. The peak of m/z 375.2 and 377.2 correspond to the molecular weight of triclabendazole sulfoxide and the peak of m/z 359.2 and 361.2 correspond to the molecular weight of triclabendazole. FIG. 15B illustrates an HPLC analysis of triclabendazole sulfoxide incubated with mouse MsrB2 and DTT. FIG. 15C details an HPLC analysis of triclabendazole sulfoxide incubated with yeast fRMsr and DTT. FIG. 15D illustrates the specific activities of various Msrs for the reduction of triclabendazole sulfoxide (left to right): mouse MsrA in the presence of DTT as a reductant, mouse MsrA in the presence of the thioredoxin reducing system, mouse MsrB2 in the presence of DTT, and yeast fRMsr in the presence of DTT.
Another methylsulfinyl-containing drug, sulmazole, was tested as a substrate for Msrs. This drug is pharmacologically active as a cardiotonic agent and is a phosphodiesterase inhibitor. FIG. 16A details an HPLC analysis of sulmazole incubated with mouse MsrA and DTT. The peak of m/z 288.3 corresponds to the molecular weight of sulmazole and the peak of m/z 272.3 corresponds to the molecular weight of reduced form of sulmazole. FIG. 16B illustrates an HPLC analysis of sulmazole incubated with mouse MsrB2 and DTT. FIG. 16C provides an HPLC analysis of sulmazole incubated with yeast fRMsr and DTT. […]

Another assay addresses T2, mouse MsrA (Mus musculus, UniProt Q9D6Y7).
T2 sequence (Q9D6Y7 21-233): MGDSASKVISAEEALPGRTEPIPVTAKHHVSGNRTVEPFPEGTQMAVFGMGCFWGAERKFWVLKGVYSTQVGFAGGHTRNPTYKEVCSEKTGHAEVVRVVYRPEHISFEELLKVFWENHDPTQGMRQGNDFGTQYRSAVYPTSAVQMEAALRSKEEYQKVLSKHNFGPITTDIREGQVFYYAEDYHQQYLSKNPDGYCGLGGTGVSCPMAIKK
Nature of the assay: Reduction of methylsulfinyl compounds by mouse MsrA (HPLC/GC analysis). Type of assay: biochemical. As to the method:
as §1, §2, §3
Another methylsulfinyl-containing drug, sulmazole, was tested as a substrate for Msrs. This drug is pharmacologically active as a cardiotonic agent and is a phosphodiesterase inhibitor. FIG. 16A details an HPLC analysis of sulmazole incubated with mouse MsrA and DTT. The peak of m/z 288.3 corresponds to the molecular weight of sulmazole and the peak of m/z 272.3 corresponds to the molecular weight of reduced form of sulmazole. FIG. 16B illustrates an HPLC analysis of sulmazole incubated with mouse MsrB2 and DTT. FIG. 16C provides an HPLC analysis of sulmazole incubated with yeast fRMsr and DTT. FIG. 16D details the specific activities of various Msrs for the reduction of sulmazole (left to right): mouse MsrA in the presence of DTT as a reductant, mouse MsrA in the presence of the thioredoxin reducing system, mouse MsrB2 in the presence of DTT, and yeast fRMsr in the presence of DTT.
DMSO, which is used as a preservative for stem cells, solvent for drugs, and a drug itself with anti-inflammatory and free radical scavenging properties, was studied for its reduction by Msrs. FIG. 17A details a GC analysis of DMSO incubated with mouse MsrA and DTT. […]

Another assay concerns the target T3, yeast fRMsr (Saccharomyces cerevisiae, UniProt P36088).
T3 construct: His-tag (C); made in house; host or cells: E. coli BL21 (DE3), pET21b
T3 sequence (P36088 1-180): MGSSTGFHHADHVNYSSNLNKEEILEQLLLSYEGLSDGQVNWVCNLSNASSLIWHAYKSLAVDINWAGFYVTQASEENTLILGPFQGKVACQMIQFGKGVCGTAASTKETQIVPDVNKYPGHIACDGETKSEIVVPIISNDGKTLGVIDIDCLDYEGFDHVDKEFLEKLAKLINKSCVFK
Nature of the assay: Reduction of methylsulfinyl drugs by yeast fRMsr (HPLC analysis). Type of assay: biochemical. As to conditions: in the presence of DTT. As to the method:
as §2
The reduction of triclabendazole sulfoxide was examined. This compound has been used to treat liver fluke, Fasciola hepatica and Fasciola gigantica, in sheep, goat, and cattle as a form of triclabendazole. Triclabendazole can be metabolized to several different forms including triclabendazole sulfoxide, which is an oxidized form of methylsulfide group, in biological systems. FIG. 15A provides an HPLC analysis of triclabendazole sulfoxide incubated with mouse MsrA and DTT. […]

[1] abbreviates: thioredoxin system as reductant.

The values below come from patent publication US20110178072A1, “STEREOSPECIFICITY OF METHYLSULFINYL REDUCTION” (priority 2008, published 2011).

Sequence of mouse MsrB2 (Q78J03 43-175): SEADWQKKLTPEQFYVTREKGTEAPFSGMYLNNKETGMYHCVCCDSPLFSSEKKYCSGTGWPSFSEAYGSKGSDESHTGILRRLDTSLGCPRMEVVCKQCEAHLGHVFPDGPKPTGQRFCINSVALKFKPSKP

In the case of `O=[Se]([O-])[O-].[Na+].[Na+]` [sodium selenite], in the assay on SK-Hep1 cells, the “Influence on cell growth on Met and Met sulfoxide” value is on record as “did not influence cell growth”.
On to Dimethylsulfoxide [DMSO], for which the “Reduction by mouse MsrB1-Cys” value on mouse MsrB1-Cys is recorded as “very inefficient substrate”. The “Reduction by mouse MsrB2” value on mouse MsrB2 was “very inefficient substrate”. Also, at mouse MsrA (DTT as a reductant), the “Reduction by mouse MsrA” value is given as “can be reduced”.
Consider `CN1CCCCC1CCN1c2ccccc2Sc2ccc([S+](C)[O-])cc21` (stereo not drawn) [Mesoridazine], for which the “Reduction by yeast fRMsr” value on yeast fRMsr is “no activity was observed”. Besides, the “Reduction by mouse MsrB2” value at mouse MsrB2 was “no activity was observed”. Further, the “Reduction by mouse MsrA” value on mouse MsrA (DTT as a reductant) and on mouse MsrA (setting [1]) was “reduced to thioridazine” in each case.
`COc1cc([S+](C)[O-])ccc1-c1nc2ncccc2[nH]1` (stereo not drawn) [sulmazole, Sulmazole]: the “Reduction by yeast fRMsr” value at yeast fRMsr is “not reduced”. Further, the “Reduction by mouse MsrB2” value at mouse MsrB2 is “not reduced”. Also, the “Reduction by mouse MsrA” value on mouse MsrA (DTT as a reductant) and at mouse MsrA (setting [1]) was “specifically reduced” each time.
